Results on 23 compounds are retold here after ChEMBL document CHEMBL4828751, “Discovery of novel tubulin/HDAC dual-targeting inhibitors with strong antitumor and antiangiogenic potency” (Eur J Med Chem, 2021).

What all share (assay type): functional, cell-based
Test [1] has as its system MGC-803. The experiment in a line: Antiproliferative activity against human MGC-803 cells assessed as cell growth inhibition after 72 hrs by SRB assay. The following applies: MGC-803, 72 h. In general terms: Sulforhodamine B stains cellular protein and so reports cell mass.
Test [2] has as its system HepG2. The experiment in a line: Antiproliferative activity against human HepG2 cells assessed as cell growth inhibition after 72 hrs by SRB assay. The following applies: HepG2, 72 h.
Test [3] has as its system U-937. Kind of test: Antiproliferative activity against human U-937 cells assessed as cell growth inhibition after 72 hrs by CCK8 assay. The following applies: U-937, 72 h. In general terms: Tetrazolium assays rely on reduction of a dye to a coloured formazan, in cell work by metabolically active cells.
Test [4] has as its system MCF7. Kind of test: Antiproliferative activity against human MCF7 cells assessed as cell growth inhibition after 72 hrs by SRB assay. The following applies: MCF7, 72 h.
Test [5] deals with HeLa. Kind of test: Antiproliferative activity against human HeLa cells assessed as cell growth inhibition after 72 hrs by SRB assay.
Test [6] relates to A549. Kind of test: Antiproliferative activity against human A549 cells assessed as cell growth inhibition after 72 hrs by SRB assay. The following applies: A549, 72 h.

For `COc1ccc(C(=O)c2cc(OC)c(OC)c(OC)c2)cc1Oc1ccc(C(=O)Nc2ccccc2N)cc1`, the IC50 in test [1], in test [2], in test [3], in test [4], in test [5] and in test [6] was greater than 5 µM throughout.

On to `COc1ccc(C(=O)c2cc(OC)c(OC)c(OC)c2)cc1OCc1ccc(C(=O)NO)cc1`, for which the IC50 in test [1], in test [2], in test [3], in test [4], in test [5] and in test [6] was greater than 5 µM each time.

Consider `COc1ccc(/C=C\c2cc(OC)c(OC)c(OC)c2)cc1Oc1ccc(C(=O)Nc2ccccc2N)cc1`, for which the IC50 in test [1] was 1.36 µM; in test [2], 4.7 µM; in test [3], 4.33 µM; in test [4], 1.57 µM; in test [5], greater than 5 µM; in test [6], greater than 5 µM.

On to `COc1ccc(/C=C\c2cc(OC)c(OC)c(OC)c2)cc1Oc1ccc(C(=O)NO)cn1`, for which the IC50 is 1.09 µM in test [1]; greater than 5 µM in test [2]; 3.32 µM in test [3]; 0.485 µM in test [4]; 2.44 µM in test [5]; 2.44 µM in test [6].

With `COc1ccc(C(=O)c2cc(OC)c(OC)c(OC)c2)cc1OCCCCC(=O)Nc1ccccc1N`, the IC50 in test [1], in test [2], in test [3], in test [4], in test [5] and in test [6] was greater than 5 µM each time.

With `COc1ccc(/C=C\c2cc(OC)c(OC)c(OC)c2)cc1Oc1ccc(C(C)(C)C(=O)Nc2ccccc2N)cc1`, the IC50 in test [1], in test [2], in test [3], in test [4], in test [5] and in test [6] was greater than 5 µM in each case.

As to `COc1ccc(C(=O)c2cc(OC)c(OC)c(OC)c2)cc1OCCCC(=O)NO`, the IC50 in test [1], in test [2], in test [3], in test [4], in test [5] and in test [6] was greater than 5 µM in each case.

In the case of `COc1ccc(/C=C\c2cc(OC)c(OC)c(OC)c2)cc1OCC(=O)Nc1ccccc1N`, the IC50 in test [1], in test [2], in test [3], in test [4], in test [5] and in test [6] was greater than 5 µM in each case.

In the case of `COc1ccc(/C=C\c2cc(OC)c(OC)c(OC)c2)cc1OCc1ccc(C(=O)Nc2ccccc2N)cc1`, the IC50 in test [1] is 0.604 µM; in test [2] it was 3.41 µM; in test [3] it was 1.79 µM; in test [4], 1.47 µM; in test [5], 2.21 µM; in test [6], 2.21 µM.

As for `COc1ccc(C(=O)c2cc(OC)c(OC)c(OC)c2)cc1OCCCC(=O)Nc1ccccc1N`, the IC50 in test [1], in test [2], in test [3], in test [4], in test [5] and in test [6] was greater than 5 µM throughout.

Consider `COc1ccc(C(=O)c2cc(OC)c(OC)c(OC)c2)cc1OCc1ccc(C(=O)Nc2ccccc2N)cc1`, for which the IC50 in test [1], in test [2], in test [3], in test [4], in test [5] and in test [6] was greater than 5 µM each time.

Take `COc1ccc(C(=O)c2cc(OC)c(OC)c(OC)c2)c(/C=C/C(=O)Nc2ccccc2N)c1`: the IC50 in test [1] is 1.61 µM; in test [2], 1.56 µM; in test [3], 1.68 µM; in test [4], 1.18 µM; in test [5], 1.04 µM; in test [6] it was 3.21 µM.

For the compound `COc1ccc(/C=C\c2cc(OC)c(OC)c(OC)c2)cc1OCCCC(=O)Nc1ccccc1N`, the IC50 is greater than 5 µM in test [1]; greater than 5 µM in test [2]; 5.78 µM in test [3]; 4.28 µM in test [4]; 0.74 µM in test [5]; 3.24 µM in test [6].

Take `COc1ccc(C(=O)c2cc(OC)c(OC)c(OC)c2)cc1Oc1ccc(C(=O)NO)cn1`: the IC50 in test [1], in test [2], in test [3], in test [4], in test [5] and in test [6] was greater than 5 µM each time.

As to `COc1ccc(C(=O)c2cc(OC)c(OC)c(OC)c2)cc1/C=C/C(=O)Nc1ccccc1N`, the IC50 in test [1] amounted to 1.1 µM; in test [2], 1.17 µM; in test [3], 2.25 µM; in test [4] it was 0.828 µM; in test [5], 1.18 µM; in test [6] it was 3.21 µM.

`COc1ccc(/C=C\c2cc(OC)c(OC)c(OC)c2)cc1/C=C/C(=O)NO`: the IC50 was found to be 0.208 µM in test [1]; 0.252 µM in test [2]; 0.805 µM in test [3]; 0.158 µM in test [4]; 0.257 µM in test [5]; 0.254 µM in test [6].

As to `COc1ccc(/C=C\c2cc(OC)c(OC)c(OC)c2)c(/C=C/C(=O)NO)c1`, the IC50 came to 0.146 µM in test [1]; 0.164 µM in test [2]; 0.995 µM in test [3]; 0.641 µM in test [4]; 0.061 µM in test [5]; 2.23 µM in test [6].

`COc1ccc(/C=C\c2cc(OC)c(OC)c(OC)c2)cc1Oc1ccc(C(C)(C)C(=O)NO)cc1`: the IC50 in test [1], in test [2], in test [3], in test [4], in test [5] and in test [6] was greater than 5 µM throughout.

As to `COc1ccc(C(=O)c2cc(OC)c(OC)c(OC)c2)cc1OCCCCC(=O)NO`, the IC50 in test [1], in test [2], in test [3], in test [4], in test [5] and in test [6] was greater than 5 µM in each case.

As for `COc1ccc(/C=C\c2cc(OC)c(OC)c(OC)c2)cc1OCC(=O)NO`, the IC50 in test [1] was 0.013 µM; in test [2], 0.122 µM; in test [3], greater than 5 µM; in test [4] it was 0.419 µM; in test [5] it was 0.064 µM; in test [6] it was 0.285 µM.

On to `COc1ccc(C(=O)c2cc(OC)c(OC)c(OC)c2)cc1Oc1ccc(C(=O)Nc2ccccc2N)cn1`, for which the IC50 in test [1], in test [2], in test [3], in test [4], in test [5] and in test [6] was greater than 5 µM in each case.

Turning to `COc1ccc(/C=C\c2cc(OC)c(OC)c(OC)c2)cc1OCCCCC(=O)Nc1ccccc1N`, the IC50 in test [1], in test [2], in test [3], in test [4], in test [5] and in test [6] was greater than 5 µM each time.

Take `COc1ccc(/C=C\c2cc(OC)c(OC)c(OC)c2)cc1Oc1ccc(C(=O)Nc2ccccc2N)cn1`: the IC50 is 1.29 µM in test [1]; 4.92 µM in test [2]; 3.22 µM in test [3]; 2.61 µM in test [4]; greater than 5 µM in test [5]; greater than 5 µM in test [6].

A word on the IC50: it is the concentration that gives 50% inhibition.
